In paper PMC10957570, “Coniferyl ferulate alleviate xylene-caused hematopoietic stem and progenitor cell toxicity by Mgst2” (Frontiers in Pharmacology, 2024):

Target: T1, Mgst2 (Mus musculus, UniProt A2RST1)
T1 construct: native protein in lysate of CD117+ bone marrow cells, captured on CF chip and identified by LC-MS/MS
Assay: SPR capture from cell lysate on CF chip, LC-MS/MS identification
Type: biochemical
Settings: CD117+ bone marrow cell lysate; CF immobilised; excess free CF lowered total SPR signal

T1 sequence (A2RST1 whole entry): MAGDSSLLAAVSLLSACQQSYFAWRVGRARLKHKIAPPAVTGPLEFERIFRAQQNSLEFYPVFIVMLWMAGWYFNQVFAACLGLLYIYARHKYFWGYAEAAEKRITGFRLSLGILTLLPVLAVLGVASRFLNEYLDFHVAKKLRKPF

COc1cc(/C=C/COC(=O)/C=C/c2ccc(O)c(OC)c2)ccc1O [Coniferyl ferulate]
SPR capture from cell lysate on CF chip, LC-MS/MS identification: we found that Mgst2 was one of the targets of CF
